{"source": "patent US8334315B2", "about": "“Substituted aromatic carboxamide and urea derivatives as vanilloid receptor ligands” (Gruenenthal GmbH, priority 2009, dated 2012)", "key": {"[1]": {"molecular_target": "T1, rat-species vanilloid receptor 1 (VR1/TRPV1) (Rattus norvegicus, UniProt O35433)", "T1 construct": "endogenous in cells; host or cells: primary cells dissociated from rat dorsal root ganglia (DRG), cultured 2-3 days with NGF", "T1 sequence (O35433 whole entry)": "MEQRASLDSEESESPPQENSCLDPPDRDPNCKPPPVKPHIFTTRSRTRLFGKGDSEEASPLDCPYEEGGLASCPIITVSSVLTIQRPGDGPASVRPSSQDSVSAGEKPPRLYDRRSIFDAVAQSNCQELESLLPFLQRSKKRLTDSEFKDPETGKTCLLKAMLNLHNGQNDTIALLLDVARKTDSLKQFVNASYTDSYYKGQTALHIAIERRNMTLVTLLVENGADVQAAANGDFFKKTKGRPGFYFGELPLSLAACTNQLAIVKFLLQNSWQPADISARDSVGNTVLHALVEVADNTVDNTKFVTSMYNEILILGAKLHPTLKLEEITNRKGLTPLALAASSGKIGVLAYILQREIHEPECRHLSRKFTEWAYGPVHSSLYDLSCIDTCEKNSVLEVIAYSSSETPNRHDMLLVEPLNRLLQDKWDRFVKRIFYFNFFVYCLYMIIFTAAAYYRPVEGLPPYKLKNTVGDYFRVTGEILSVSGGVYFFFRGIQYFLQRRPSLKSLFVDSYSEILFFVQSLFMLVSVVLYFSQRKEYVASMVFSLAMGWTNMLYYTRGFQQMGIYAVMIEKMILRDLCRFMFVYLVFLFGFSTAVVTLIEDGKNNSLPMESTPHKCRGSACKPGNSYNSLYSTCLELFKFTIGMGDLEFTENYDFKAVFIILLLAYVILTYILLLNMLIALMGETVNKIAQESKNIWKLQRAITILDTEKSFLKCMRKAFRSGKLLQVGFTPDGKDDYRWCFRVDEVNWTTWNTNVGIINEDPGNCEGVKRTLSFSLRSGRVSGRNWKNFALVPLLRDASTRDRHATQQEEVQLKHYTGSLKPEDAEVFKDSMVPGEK", "assay": "Functional testing on the vanilloid receptor 1, FLIPR Ca2+ influx in rat DRG cells, capsaicin", "format": "cell-based", "set-up": "key to Ki (rat) [nM] Cap: agonist / partial agonist / no effect: AG=agonist; pAG=partial agonist; NE=no effect", "conditions": "for Ki: capsaicin (Cap), includes values given in brackets after pAG"}, "hVR1": {"molecular_target": "T2, hVR1 (Homo sapiens, UniProt Q8NER1)", "T2 construct": "expressed in transfected cells; host or cells: CHO K1 cells (ECACC), stably transfected", "T2 sequence (Q8NER1 whole entry)": "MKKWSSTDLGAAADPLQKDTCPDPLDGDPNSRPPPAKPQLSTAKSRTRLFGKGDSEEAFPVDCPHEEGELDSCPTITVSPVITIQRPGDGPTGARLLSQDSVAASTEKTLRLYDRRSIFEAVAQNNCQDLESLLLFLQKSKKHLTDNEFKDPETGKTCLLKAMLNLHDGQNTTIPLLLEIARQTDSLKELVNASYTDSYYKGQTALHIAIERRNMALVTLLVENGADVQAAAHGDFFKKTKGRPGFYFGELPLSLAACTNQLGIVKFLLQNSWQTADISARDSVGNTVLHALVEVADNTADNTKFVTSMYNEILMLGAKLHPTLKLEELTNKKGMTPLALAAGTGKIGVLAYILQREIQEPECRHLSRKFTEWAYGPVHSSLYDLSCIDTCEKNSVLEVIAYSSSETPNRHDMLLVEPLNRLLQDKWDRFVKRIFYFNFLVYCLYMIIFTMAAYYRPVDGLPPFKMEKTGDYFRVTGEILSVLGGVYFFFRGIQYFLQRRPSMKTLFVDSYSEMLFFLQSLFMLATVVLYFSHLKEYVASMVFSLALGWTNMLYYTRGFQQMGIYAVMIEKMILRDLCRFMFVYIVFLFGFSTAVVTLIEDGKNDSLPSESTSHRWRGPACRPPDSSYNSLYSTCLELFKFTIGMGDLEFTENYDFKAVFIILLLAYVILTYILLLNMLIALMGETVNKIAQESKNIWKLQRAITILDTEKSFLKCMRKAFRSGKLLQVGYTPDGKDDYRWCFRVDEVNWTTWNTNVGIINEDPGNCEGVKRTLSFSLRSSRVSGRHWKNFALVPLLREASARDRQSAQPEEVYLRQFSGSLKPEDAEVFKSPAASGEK", "assay": "Functional test on VR1, FLIPR Ca2+ influx in transfected CHO K1 cells, capsaicin", "format": "cell-based, human being", "set-up": "key to Ki (human being) [nM] Cap: agonist / partial agonist / no effect: AG=agonist; pAG=partial agonist; NE=no effect", "conditions": "for Ki: capsaicin (Cap), includes values given in brackets after pAG, read-out: Ki (human being) [nM] Cap"}}}
{"smiles": "CC(C(=O)NCc1cc(C(C)(C)C)nn1-c1cccc(Cl)c1)c1ccc2c(c1)OCO2", "note": "(stereo not drawn) [Example 11, 2-(benzo[d][1,3]dioxol-5-yl)-N-((3-tert-butyl-1-(3-chlorophenyl)-1H-pyrazol-5-yl)methyl)propanamide]", "values": [{"measurement": "Ki (rat) [nM] Cap: agonist / partial agonist / no effect", "setting": "[1]", "result": "AG"}, {"measurement": "Ki (human being) [nM] Cap: agonist / partial agonist / no effect", "setting": "hVR1", "result": "pAG"}, {"measurement": "Ki", "setting": "hVR1", "result": 3.5, "unit": "nM"}]}
{"smiles": "CC(C(=O)NCc1cc(C(C)(C)C)nn1-c1cccc(Cl)c1)c1ccc2c(c1)OCCO2", "note": "(stereo not drawn) [Example 13, N-((3-tert-butyl-1-(3-chlorophenyl)-1H-pyrazol-5-yl)methyl)-2-(2,3-dihydrobenzo[b][1,4]dioxin-6-yl)propanamide]", "values": [{"measurement": "Ki (rat) [nM] Cap: agonist / partial agonist / no effect", "setting": "[1]", "result": "pAG"}, {"measurement": "Ki", "setting": "[1]", "result": 5.5, "unit": "nM"}, {"measurement": "Ki (human being) [nM] Cap: agonist / partial agonist / no effect", "setting": "hVR1", "result": "pAG"}, {"measurement": "Ki", "setting": "hVR1", "result": 6.4, "unit": "nM"}]}
{"smiles": "Cc1nc2ccc(C(C)C(=O)NCc3cc(C(F)(F)F)nn3-c3cccc(Cl)c3)cc2s1", "note": "(stereo not drawn) [Example 45, N-((1-(3-chlorophenyl)-3-(trifluoromethyl)-1H-pyrazol-5-yl)methyl)-2-(2-methylbenzo[d]thiazol-6-yl)propanamide]", "values": [{"measurement": "Ki (rat) [nM] Cap: agonist / partial agonist / no effect", "setting": "[1]", "result": "pAG"}, {"measurement": "Ki", "setting": "[1]", "result": 14.7, "unit": "nM"}, {"measurement": "Ki", "setting": "hVR1", "result": 15, "unit": "nM"}]}
{"smiles": "CC(C(=O)NCc1cc(C(F)(F)F)nn1-c1cccc(Cl)c1)c1ccc2cc(O)ccc2c1", "note": "(stereo not drawn) [Example 50, N-((1-(3-chlorophenyl)-3-(trifluoromethyl)-1H-pyrazol-5-yl)methyl)-2-(6-hydroxynaphthalen-2-yl)propanamide]", "values": [{"measurement": "Ki (rat) [nM] Cap: agonist / partial agonist / no effect", "setting": "[1]", "result": "pAG"}, {"measurement": "Ki", "setting": "[1]", "result": 2.5, "unit": "nM"}, {"measurement": "Ki (human being) [nM] Cap: agonist / partial agonist / no effect", "setting": "hVR1", "result": "pAG"}, {"measurement": "Ki", "setting": "hVR1", "result": 1.3, "unit": "nM"}]}
{"smiles": "CC(C(=O)NCc1cc(C(F)(F)F)nn1-c1cccc(Cl)c1)c1cccc2cnccc12", "note": "(stereo not drawn) [Example 64, N-((1-(3-chlorophenyl)-3-(trifluoromethyl)-1H-pyrazol-5-yl)methyl)-2-(isoquinolin-5-yl)propanamide]", "values": [{"measurement": "Ki", "setting": "[1]", "result": 1, "unit": "nM"}, {"measurement": "Ki", "setting": "hVR1", "result": 0.2, "unit": "nM"}]}
{"smiles": "CC(C)(C)c1cc(CNC(=O)Nc2ccc3c(c2)CCC3)n(-c2cccc(Cl)c2)n1", "note": "[Example 79, 1-((3-tert-butyl-1-(3-chlorophenyl)-1H-pyrazol-5-yl)methyl)-3-(2,3-dihydro-1H-inden-5-yl)urea]", "values": [{"measurement": "Ki", "setting": "[1]", "result": 15.8, "unit": "nM"}, {"measurement": "Ki", "setting": "hVR1", "result": 10.8, "unit": "nM"}]}
